# Measurements published in US20240368174A1, “Antiviral Heterocyclic Compounds” (Enanta Pharmaceuticals, Inc., priority 2023, published 2024).
# Tested on: HMPV clinical isolate A2 strain TN 94-49
# Assay: HMPV antiviral assay, Method 2 (LLC-MK2 cells with CP-100-356, ATP-Lite)
# Assay type: cell-based
# Conditions: human metapneumovirus, 168 h; hMPV A2 TN/94-49, LLC-MK2 cells with 4 μM CP-100-356, 7 days, ATP-Lite
# In short: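 LLC-MK2 rhesus kidney cells (5,000/well) infected in suspension with HMPV A2 TN 94-49 at MOI 0.16, in serum-free medium with final 2 μg/mL TPCK-trypsin and 2 μM CP-100-356. Compounds tested in duplicate from 200 nM, 2.5-fold, 10 points; 7 days at 37 °C. Cell health by ATP-Lite luminescence; EC50 by four-parameter fit.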
row,EC50,Compound
1,> 200 nM,COc1nccc(-c2nc([C@@](O)(CNC(=O)c3cc(OC)n4nc(C5CC5)cc4c3)C(C)C)cc3c2OC[C@]3(C)C(N)=O)c1Cl [Example 890]
2,< 200 nM,COc1cc(-c2nc([C@@](O)(CNC(=O)c3cc(OC)c4nn(C5CC5)cc4c3)c3ccccc3)cc3c2OC[C@]3(C)C(N)=O)c(F)cn1 [Example 635]
3,< 200 nM,COc1cc(C(=O)NC[C@](O)(c2cc3c(c(-c4ccnc(C)c4Cl)n2)OC[C@]3(C)C(N)=O)C2CC2)cc2cn(C3CC3)nc12 [Example 871]
4,< 200 nM,COc1nccc(-c2nc([C@@](O)(CNC(=O)c3cc(OC)c4nn(C5CC5)cc4c3)C3(F)CC3)cc3c2OC[C@]3(C)C(N)=O)c1Cl [Example 653]
5,< 200 nM,COc1nccc(-c2nc([C@@](O)(CNC(=O)c3cc(OC)c4nn(C5CC5)cc4c3)C3CC3)cc3c2OC[C@]3(C)C(N)=O)c1Cl [Example 782]
6,> 200 nM,COc1cc(C(=O)NC[C@](O)(c2cc3c(c(-c4ccnc(C(C)C)c4Cl)n2)OC[C@]3(C)C(N)=O)C2CC2)cn2cc(C3CC3)nc12 [Example 911]
7,< 200 nM,COc1nccc(-c2nc([C@@](O)(CNC(=O)c3cc(OC)n4nc(C5CC5)cc4c3)C3(F)CC3)cc3c2OC[C@]3(C)C(N)=O)c1Cl [Example 656]
8,> 200 nM,COc1cc(C(=O)NC[C@](O)(c2cc3c(c(-c4ccn5nc(C)cc5c4)n2)OC[C@]3(C)C(N)=O)C2CC2)cc2cn(C3CC3)nc12 [Example 838]
9,< 200 nM,COc1cc(C(=O)NC[C@@](O)(c2cccc(F)c2)c2cc3c(c(-c4ccnc(C)c4Cl)n2)OC[C@]3(C)C(N)=O)cc2cc(Cl)c(C)nc12 [Example 700]
10,< 200 nM,COc1cc(C(=O)NC[C@](O)(c2cc3c(c(-c4c(F)cncc4Cl)n2)OC[C@]3(C)C(N)=O)C2CC2)cc2cn(C3CC3)nc12 [Example 724]
11,< 200 nM,COc1cc(C(=O)NC[C@](O)(c2cc3c(c(-c4c(F)cncc4F)n2)OC[C@]3(C)C(N)=O)C2CC2)cc2cn(C3CC3)nc12 [Example 729]
12,> 200 nM,COc1cc(C(=O)NC[C@](O)(c2cc3c(c(-c4ccnc(C(F)(F)F)c4)n2)OC[C@]3(C)C(N)=O)C2CC2)cc2cn(C(F)F)nc12 [Example 759]
13,> 200 nM,COc1cc(C(=O)NC[C@](O)(c2cc3c(c(-n4ncc5c4CCCC5)n2)OC[C@]3(C)C(N)=O)C2CC2)cc2oc(C3CC3)nc12 [Example 644]
14,> 200 nM,COc1cc(C(=O)NC[C@@](O)(c2cc3c(c(-n4ccc5cnccc54)n2)OC[C@]3(C)C(N)=O)C2CC2)cc2cn(C3CC3)nc12 [Example 840]
15,< 200 nM,COc1cc(C(=O)NC[C@](O)(c2cc3c(c(-c4ccnc5ccccc45)n2)OC[C@]3(C)C(N)=O)C2CC2)cc2cn(C3CC3)nc12 [Example 727]

# Same assay, conditions: human metapneumovirus; hMPV A2 TN/94-49, LLC-MK2 cells with CP-100-356, Method 2
row,Compound,EC50
1,COc1cc(C(=O)NC[C@](O)(c2cc3c(c(-c4cc(F)c(F)cc4F)n2)OC[C@]3(C)C(N)=O)C2CC2)cc2cc(Cl)cnc12 [Example 103],< 200 nM
2,COc1cc(C(=O)NCC(O)(c2cc3c(c(-c4cc(Cl)c(F)cc4F)n2)OC[C@]3(C)C(N)=O)c2ccc(Cl)s2)cc2cn(C3CC3)nc12 (stereo partly shown) [Example 472],> 200 nM
3,COc1cc(C(=O)NC[C@@](O)(c2cccc(F)c2)c2cc3c(c(-c4ccnc(C)c4Cl)n2)OC[C@]3(C)C(N)=O)cc2oc(C3CC3)nc12 [Example 540],< 200 nM
4,COc1cc(C(=O)NC[C@@](O)(c2cccc(F)n2)c2cc3c(c(-c4cc(Cl)c(F)cc4F)n2)OC[C@]3(C)C(N)=O)cc2cn(C3(F)CC3)nc12 [Example 204],< 200 nM
5,COc1cc(C(=O)NC[C@@](O)(c2ccccc2)c2cc3c(c(-c4cc(F)c(F)cc4F)n2)OC[C@]3(C)C(N)=O)cc2oc(C)nc12 [Example 193],< 200 nM
6,COc1cc(C(=O)NC[C@@](O)(c2ccncc2)c2cc3c(c(-c4cc(Cl)c(F)cc4F)n2)OC[C@]3(C)C(N)=O)cc2cn(C3CC3)nc12 [Example 152],< 200 nM
7,C[C@]1(C(N)=O)COc2c1cc([C@@](O)(CNC(=O)c1cc(OC3CC3)c3nn(C4(F)CC4)cc3c1)C1CC1)nc2-c1ccc(F)c(Cl)c1 [Example 112],< 200 nM
8,COc1cc(C(=O)NC[C@@](O)(c2cccc(F)c2)c2cc3c(c(-c4ccc5c(c4Cl)OC(F)(F)O5)n2)OC[C@]3(C)C(N)=O)cc2oc(C3CC3)nc12 [Example 286],< 200 nM
9,COc1cc(C(=O)NC[C@@](O)(c2cccc(F)c2)c2cc3c(c(-c4ccnc(C(F)F)c4Cl)n2)OC[C@]3(C)C(N)=O)cc2oc(C(F)F)nc12 [Example 568],< 200 nM
10,Cc1nccc(-c2nc([C@@](O)(CNC(=O)c3cc(OC4CC4)c4nn(C5CC5)cc4c3)C3CC3)cc3c2OC[C@]3(C)C(N)=O)c1Cl [Example 600],< 200 nM
11,COc1cc(C(=O)NC[C@](O)(c2cc3c(c(-n4ccc5ccccc54)n2)OC[C@]3(C)C(N)=O)C(F)(F)F)cc2cn(C(F)F)nc12 [Example 449],< 200 nM
12,COc1cc(C(=O)NC[C@@](O)(c2cccc(F)c2)c2cc3c(c(-c4cc(C(F)(F)F)c(F)cc4F)n2)OC[C@]3(C)C(N)=O)cc2cn(C(F)F)nc12 [Example 301],< 200 nM
13,COc1cc(C(=O)NC[C@](O)(c2cc3c(c(-c4cc(Cl)c(F)cc4F)n2)OC[C@]3(C)C(N)=O)C2(C)CC2)cc2cn(C3CC3)nc12 [Example 516],< 200 nM
14,COc1cc(C(=O)NC[C@@](O)(c2ccccc2)c2cc3c(c(-c4cc(Cl)c(F)cc4F)n2)OC[C@]3(C)C(N)=O)cc2cc(Cl)nnc12 [Example 113],< 200 nM
15,COc1cc(C(=O)NC[C@](O)(c2cc3c(c(-c4cc(C5CC5)ncc4F)n2)OC[C@]3(C)C(N)=O)C2CC2)cc2cn(C3CC3)nc12 [Example 432],< 200 nM
16,C[C@]1(C(N)=O)COc2c1cc([C@@](O)(CNC(=O)c1cc(OC3CC3)c3ncc(Cl)cc3c1)c1ccccc1)nc2-c1cc(F)c(F)cc1F [Example 197],< 200 nM
17,COc1cc(C(=O)NC[C@@](O)(c2cccc(S(N)(=O)=O)c2)c2cc3c(c(-c4cc(Cl)c(F)cc4F)n2)OC[C@]3(C)C(N)=O)cc2cn(C3CC3)nc12 [Example 486],> 200 nM
18,COc1cc(C(=O)NC[C@](O)(c2cc3c(c(-c4cc(Cl)c(F)cc4F)n2)OC[C@]3(C)C(N)=O)C2CC2)cc2cc(Cl)cnc12 [Example 225],< 200 nM
19,COc1cc(C(=O)NC[C@](O)(c2cc3c(c(-c4ccnc(Cl)c4Cl)n2)OC[C@]3(C)C(N)=O)C2(F)CC2)cn2cc(C3(F)CC3)nc12 [Example 522],< 200 nM
20,COc1cc(C(=O)NC[C@](O)(c2cc3c(c(-c4ccnc(F)c4)n2)OC[C@]3(C)C(N)=O)C2CC2)cc2cn(C3CC3)nc12 [Example 121],> 200 nM
21,COc1cc(C(=O)NC[C@](O)(c2cc3c(c(-c4ccnc(C(F)(F)F)c4Cl)n2)OC[C@]3(C)C(N)=O)C(F)(F)F)cc2cc(C3CC3)nn12 [Example 596],< 200 nM
22,COc1cc(C(=O)NC[C@](O)(c2cc3c(c(-c4c(C)cncc4C)n2)OC[C@]3(C)C(N)=O)C2CC2)cc2cn(C3CC3)nc12 [Example 431],< 200 nM
23,COc1cc(C(=O)NC[C@](O)(c2cc3c(c(-c4ccnc(C)c4Cl)n2)OC[C@]3(C)C(N)=O)C2(F)CC2)cc2cn(C3(F)CC3)nc12 [Example 525],< 200 nM

# Results, then the compound that gave them:
row,EC50,Compound
1,< 200 nM,Cc1nccc(-c2nc([C@@](O)(CNC(=O)c3cc(OC4CC4)c4nn(C5CC5)cc4c3)c3cccc(F)c3)cc3c2OC[C@]3(C)C(N)=O)c1Cl [Example 603]
2,< 200 nM,Cc1nccc(-c2nc([C@@](O)(CNC(=O)c3cc(OC4CC4)c4nn(C(F)F)cc4c3)c3cccc(F)c3)cc3c2OC[C@]3(C)C(N)=O)c1Cl [Example 604]
